Test results: patent US9556183B2, “Substituted pyrazolylpyrazole derivative and use of same as herbicide” (KYOYU AGRI CO., LTD., priority 2013, dated 2017)

Assays:
[1] = system: Amaranthus retroflexus; assay: Weed foliar treatment test; type: in vivo; conditions: foliar spray, 3 weeks
How it was run: (§1)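 Pot-grown weeds were raised in a 25 °C greenhouse and sprayed post-emergence with water-diluted wettable powder at 15 L water per are, at the 1.0-2.0 leaf stage of Digitaria ciliaris. Efficacy was rated 3 weeks later as growth inhibition versus untreated plants on an 11-level scale.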

[2] = system: Chenopodium album; assay: Weed foliar treatment test; type: in vivo; conditions: foliar spray, 3 weeks
How it was run: as §1

[3] = system: Digitaria ciliaris; assay: Weed foliar treatment test; type: in vivo; conditions: foliar spray at 1.0 to 2.0 leaf stage of Digitaria ciliaris, 3 weeks
How it was run: as §1

[4] = system: Amaranthus retroflexus; assay: Farming soil treatment test; type: in vivo; conditions: soil surface spray prior to weed growth, 30 days
How it was run: (§2)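 Preemergence soil treatment: field soil pots seeded and covered, then wettable-powder formulations diluted in water sprayed on soil surface at 10 L water per are before weed emergence. Growth inhibition (%) versus untreated pots rated on an 11-level scale after 30 days in greenhouse at average 30 °C.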

[5] = system: Chenopodium album; assay: Farming soil treatment test; type: in vivo; conditions: soil surface spray prior to weed growth, 30 days
How it was run: as §2

[6] = system: Digitaria ciliaris; assay: Farming soil treatment test; type: in vivo; conditions: soil surface spray prior to weed growth, 30 days
How it was run: as §2

[7] = system: Rice plants; assay: Paddy herbicidal activity test, phytotoxicity to transplanted rice; type: in vivo; conditions: rice transplanted at 2.0 leaf stage, 30 days
How it was run: (§3)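 Flooded paddy-soil pots (3 cm water) sown with weeds; rice at 2.0 leaf stage transplanted when Echinochloa reached 3.5 leaf stage, then diluted wettable powder dropped into water at prescribed rate per are. After 30 days in greenhouse (mean 30° C), growth inhibition vs untreated (efficacy) or vs complete kill (phytotoxicity) scored on 11 levels.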

[8] = system: Monochoria vaginalis; assay: Paddy herbicidal activity test; type: in vivo; conditions: irrigated paddy pot, 30 days
How it was run: as §3

[9] = system: Echinochloa crus-galli; assay: Paddy herbicidal activity test; type: in vivo; conditions: irrigated paddy pot, treated at 3.5 leaf stage of Echinochloa crus-galli, 30 days
How it was run: as §3

[10] = system: Scirpus juncoides; assay: Paddy herbicidal activity test; type: in vivo; conditions: irrigated paddy pot, 30 days
How it was run: as §3

N#Cc1cnn(-c2nn3c(c2Cl)CCCC3)c1NCC1CC1 [Compound 1, 1-(3-chloro-4,5,6,7-tetrahydropyrazolo[1,5-a]pyridin-2-yl)-5-(cyclopropylmethylamino)pyrazole-4-carbonitrile]
herbicidal efficacy (growth inhibition rate level) Amaranthus retroflexus ([1]; 5g a.i./10a): 10 (10: 100%) | herbicidal efficacy (growth inhibition rate level) Amaranthus retroflexus ([1]; 10g a.i./10a): 10 (10: 100%) | herbicidal efficacy (growth inhibition rate level) Chenopodium album ([2]; 5g a.i./10a): 10 (10: 100%) | herbicidal efficacy (growth inhibition rate level) Chenopodium album ([2]; 10g a.i./10a): 10 (10: 100%) | herbicidal efficacy (growth inhibition rate level) Digitaria ciliaris ([3]; 5g a.i./10a): 10 (10: 100%) | herbicidal efficacy (growth inhibition rate level) Digitaria ciliaris ([3]; 10g a.i./10a): 10 (10: 100%) | melting point: 165 to 166 °C | herbicidal efficacy (growth inhibition rate level) Amaranthus retroflexus ([4]; 5g a.i./10a): 10 (10: 100%) | herbicidal efficacy (growth inhibition rate level) Amaranthus retroflexus ([4]; 10g a.i./10a): 10 (10: 100%) | herbicidal efficacy (growth inhibition rate level) Chenopodium album ([5]; 5g a.i./10a): 10 (10: 100%) | herbicidal efficacy (growth inhibition rate level) Chenopodium album ([5]; 10g a.i./10a): 10 (10: 100%) | herbicidal efficacy (growth inhibition rate level) Digitaria ciliaris ([6]; 5g a.i./10a): 10 (10: 100%) | herbicidal efficacy (growth inhibition rate level) Digitaria ciliaris ([6]; 10g a.i./10a): 10 (10: 100%) | phytotoxicity (growth inhibition rate level) Rice plants ([7]; 1g a.i./10a): 0 (0 (exponent): 0% to less than 10% (growth inhibition rate)) | phytotoxicity (growth inhibition rate level) Rice plants ([7]; 5g a.i./10a): 1 (1: 10% to less than 20%) | herbicidal efficacy (growth inhibition rate level) Monochoria vaginalis ([8]; 1g a.i./10a): 8 (8: 80% to less than 90%) | herbicidal efficacy (growth inhibition rate level) Monochoria vaginalis ([8]; 5g a.i./10a): 8 (8: 80% to less than 90%) | herbicidal efficacy (growth inhibition rate level) Echinochloa crus-galli ([9]; 1g a.i./10a): 9 (9: 90% to less than 100%) | herbicidal efficacy (growth inhibition rate level) Echinochloa crus-galli ([9]; 5g a.i./10a): 10 (10: 100%) | herbicidal efficacy (growth inhibition rate level) Scirpus juncoides ([10]; 1g a.i./10a): 8 (8: 80% to less than 90%) | herbicidal efficacy (growth inhibition rate level) Scirpus juncoides ([10]; 5g a.i./10a): 9 (9: 90% to less than 100%)

N#Cc1cnn(-c2nn3c(c2Cl)CCCC3)c1N(CC1CC1)C(=O)C(F)(F)F [Compound 2, N-(1-(3-chloro-4,5,6,7-tetrahydropyrazolo[1,5-a]pyridin-2-yl)-4-cyanopyrazol-5-yl)-N-(cyclopropylmethyl)-2,2,2-trifluoroacetoamide]
herbicidal efficacy (growth inhibition rate level) Amaranthus retroflexus ([1]; 5g a.i./10a): 10 (10: 100%) | herbicidal efficacy (growth inhibition rate level) Amaranthus retroflexus ([1]; 10g a.i./10a): 10 (10: 100%) | herbicidal efficacy (growth inhibition rate level) Chenopodium album ([2]; 5g a.i./10a): 10 (10: 100%) | herbicidal efficacy (growth inhibition rate level) Chenopodium album ([2]; 10g a.i./10a): 10 (10: 100%) | herbicidal efficacy (growth inhibition rate level) Digitaria ciliaris ([3]; 5g a.i./10a): 10 (10: 100%) | herbicidal efficacy (growth inhibition rate level) Digitaria ciliaris ([3]; 10g a.i./10a): 10 (10: 100%) | melting point: 87.3 to 101 °C | herbicidal efficacy (growth inhibition rate level) Amaranthus retroflexus ([4]; 5g a.i./10a): 10 (10: 100%) | herbicidal efficacy (growth inhibition rate level) Amaranthus retroflexus ([4]; 10g a.i./10a): 10 (10: 100%) | herbicidal efficacy (growth inhibition rate level) Chenopodium album ([5]; 5g a.i./10a): 10 (10: 100%) | herbicidal efficacy (growth inhibition rate level) Chenopodium album ([5]; 10g a.i./10a): 10 (10: 100%) | herbicidal efficacy (growth inhibition rate level) Digitaria ciliaris ([6]; 5g a.i./10a): 10 (10: 100%) | herbicidal efficacy (growth inhibition rate level) Digitaria ciliaris ([6]; 10g a.i./10a): 10 (10: 100%) | phytotoxicity (growth inhibition rate level) Rice plants ([7]; 1g a.i./10a): 0 (0 (exponent): 0% to less than 10% (growth inhibition rate)) | phytotoxicity (growth inhibition rate level) Rice plants ([7]; 5g a.i./10a): 1 (1: 10% to less than 20%) | herbicidal efficacy (growth inhibition rate level) Monochoria vaginalis ([8]; 1g a.i./10a): 8 (8: 80% to less than 90%) | herbicidal efficacy (growth inhibition rate level) Monochoria vaginalis ([8]; 5g a.i./10a): 9 (9: 90% to less than 100%) | herbicidal efficacy (growth inhibition rate level) Echinochloa crus-galli ([9]; 1g a.i./10a): 9 (9: 90% to less than 100%) | herbicidal efficacy (growth inhibition rate level) Echinochloa crus-galli ([9]; 5g a.i./10a): 9 (9: 90% to less than 100%) | herbicidal efficacy (growth inhibition rate level) Scirpus juncoides ([10]; 1g a.i./10a): 8 (8: 80% to less than 90%) | herbicidal efficacy (growth inhibition rate level) Scirpus juncoides ([10]; 5g a.i./10a): 8 (8: 80% to less than 90%)
